Measurements reported in patent US20260132129A1 (Genesis Therapeutics, Inc., priority 2022, published 2026).

Biological target: T1, PI3Kα H1047R (T47D cells) (Homo sapiens, UniProt P42336, H1047R)
T1 construct: endogenous in cells; host or cells: T47D cells
Assay: PI3Kα cellular assay: pAKT HTRF in T47D cells after EGF stimulation
Assay type: cell-based
Details: for IC50: T47D cells (PI3Kα H1047R), pAKT S473 HTRF
In short: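 pAKT read by HTRF in lysates of EGF-stimulated (20 ng/mL, 10 min) T47D H1047R cells. Before stimulation, serum-starved cells (16 h) received compound for 1 h at 37 °C, dosed from 10,000 nM down to 0.5 nM in 3-fold steps.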

[1] = 1 hr compound, 20 ng/ml EGF 10 min
[2] = selectivity T47D (H1047R) over SKBR3 (WT), pAKT HTRF
[3] = selectivity of T47D (H1047R) over SKBR3 (WT) pAKT IC50

T1 sequence (P42336 whole entry H1047R): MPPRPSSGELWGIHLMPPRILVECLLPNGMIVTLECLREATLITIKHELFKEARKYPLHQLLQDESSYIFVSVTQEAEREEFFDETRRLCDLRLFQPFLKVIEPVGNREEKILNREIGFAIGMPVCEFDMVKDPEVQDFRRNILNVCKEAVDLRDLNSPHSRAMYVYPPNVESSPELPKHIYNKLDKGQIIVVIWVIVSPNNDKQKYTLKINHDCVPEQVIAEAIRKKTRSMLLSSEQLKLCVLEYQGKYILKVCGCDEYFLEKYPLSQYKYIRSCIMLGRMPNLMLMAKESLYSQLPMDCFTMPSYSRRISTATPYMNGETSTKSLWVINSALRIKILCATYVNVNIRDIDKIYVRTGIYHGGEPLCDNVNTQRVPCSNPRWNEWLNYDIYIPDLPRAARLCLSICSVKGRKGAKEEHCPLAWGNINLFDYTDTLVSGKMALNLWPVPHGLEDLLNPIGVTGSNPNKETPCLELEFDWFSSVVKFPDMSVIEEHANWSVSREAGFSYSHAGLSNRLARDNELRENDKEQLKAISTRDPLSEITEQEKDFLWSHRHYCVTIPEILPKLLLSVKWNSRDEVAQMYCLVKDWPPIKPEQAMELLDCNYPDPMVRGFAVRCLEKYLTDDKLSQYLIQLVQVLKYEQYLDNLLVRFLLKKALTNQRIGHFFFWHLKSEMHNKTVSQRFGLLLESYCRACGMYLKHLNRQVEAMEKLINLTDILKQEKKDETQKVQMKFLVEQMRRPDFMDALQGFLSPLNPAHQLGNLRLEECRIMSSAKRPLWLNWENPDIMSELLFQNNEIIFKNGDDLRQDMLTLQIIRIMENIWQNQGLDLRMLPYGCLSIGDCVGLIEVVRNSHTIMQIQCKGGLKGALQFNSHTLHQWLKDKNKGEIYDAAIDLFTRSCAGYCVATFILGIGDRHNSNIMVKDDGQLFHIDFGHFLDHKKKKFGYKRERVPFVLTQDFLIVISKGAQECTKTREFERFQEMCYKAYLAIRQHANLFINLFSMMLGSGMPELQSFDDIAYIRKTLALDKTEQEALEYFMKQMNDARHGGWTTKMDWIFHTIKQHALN
T1 sequence (P27986 whole entry partner): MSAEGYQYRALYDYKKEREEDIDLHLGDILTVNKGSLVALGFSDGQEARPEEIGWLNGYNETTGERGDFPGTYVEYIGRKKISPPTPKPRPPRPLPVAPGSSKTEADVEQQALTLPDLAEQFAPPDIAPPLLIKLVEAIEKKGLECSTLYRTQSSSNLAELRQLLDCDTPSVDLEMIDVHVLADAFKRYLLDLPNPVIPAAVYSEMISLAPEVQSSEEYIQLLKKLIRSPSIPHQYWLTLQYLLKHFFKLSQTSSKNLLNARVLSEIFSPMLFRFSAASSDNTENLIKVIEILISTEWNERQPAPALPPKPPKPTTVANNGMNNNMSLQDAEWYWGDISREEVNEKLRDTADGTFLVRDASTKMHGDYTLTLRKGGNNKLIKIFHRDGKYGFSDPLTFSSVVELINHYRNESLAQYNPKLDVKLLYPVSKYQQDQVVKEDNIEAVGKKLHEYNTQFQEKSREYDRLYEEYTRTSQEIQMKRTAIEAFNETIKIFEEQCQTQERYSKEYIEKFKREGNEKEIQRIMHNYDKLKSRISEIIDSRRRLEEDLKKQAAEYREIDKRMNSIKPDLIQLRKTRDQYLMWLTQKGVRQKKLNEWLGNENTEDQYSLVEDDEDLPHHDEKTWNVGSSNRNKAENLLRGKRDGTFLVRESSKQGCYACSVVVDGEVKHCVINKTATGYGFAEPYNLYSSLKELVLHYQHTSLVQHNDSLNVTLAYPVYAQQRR

SMILES | IC50 [1] | T47D pAKT S473 HTRF IC50 (H1047R): T47D (H1047R) selectivity over SKBR3 (WT) [2] | T47D pAKT S473 HTRF IC50 (H1047R): T47D (H1047R) selectivity over SKBR3 (WT) [3] | IC50 (EGF stimulation)
Cc1cc(C(C)Nc2ccccc2S(N)(=O)=O)c2nc(-c3cc(C)c4oc(=O)[nH]c4c3)cc(=O)n2c1 (centres unmarked) [Compound 571] | > 2 µM | C (C denotes ≤5-fold) |  | 
Cc1cc([C@H](C)Nc2ccccc2C(=O)O)c2nc(Nc3ccc4[nH]c(=O)[nH]c4c3)cc(=O)n2c1 [Compound 574] | > 2 µM | C (C denotes ≤5-fold) |  | 
Cc1cc([C@@H](C)Nc2ccccc2C(=O)O)c2nc(-c3ccc4c(c3)NC(=O)C4)cc(=O)n2c1 [Compound 575] | 0.1 to 0.5 µM | A (A denotes >20-fold) |  | 
Cc1cc([C@H](C)Nc2ccccc2C(=O)O)c2nc(-c3ccc4c(c3)NC(=O)C4)cc(=O)n2c1 [Compound 576] | > 2 µM | C (C denotes ≤5-fold) |  | 
CNC1=NC2C=C(c3cc(=O)n4cc(C)cc(C(C)Nc5ccccc5C(=O)O)c4n3)C=CC2=C1 (centres unmarked) [Compound 577] | 0.1 to 0.5 µM | A (A denotes >20-fold) |  | 
CC(=O)N[C@H]1CCCC(c2cc(=O)n3cc(C)cc(C(C)Nc4ccccc4C(=O)O)c3n2)C1 (some centres unmarked) [Compound 580] |  | C (C denotes ≤5-fold) |  | 
Cc1cc(C(C)Nc2ccccc2C(=O)O)c2nc(N3CCN(C(C)(C)C(N)=O)CC3)cc(=O)n2c1 (centres unmarked) [Compound 581] |  | C (C denotes ≤5-fold) |  | 
Cc1cc(C(C)Nc2ccccc2S(N)(=O)=O)c2nc(-c3ccc(F)cc3)cc(=O)n2c1 (centres unmarked) [Compound 585] | > 2 µM | C (C denotes ≤5-fold) |  | 
Cc1cc(C(C)Nc2ccccc2S(N)(=O)=O)c2nc(-c3ccc(F)cc3)cc(=O)n2c1 (centres unmarked) [Compound 586] | > 2 µM | C (C denotes ≤5-fold) |  | 
Cc1cc([C@H](C)Nc2ccccc2S(N)(=O)=O)c2nc(-c3ccc(F)cc3)cc(=O)n2c1 [Compound 587] | > 2 µM | C (C denotes ≤5-fold) |  | 
Cc1cc([C@H](C)Nc2cccc3c2CCC(=O)N3)c2nc(N3CCOCC3)cc(=O)n2c1 [Compound 604] | > 2 µM | C (C denotes ≤5-fold) |  | 
Cc1cc([C@@H](C)Nc2ccccc2S(N)(=O)=O)c2nc(N3Cc4ccccc4C3)cc(=O)n2c1 [Compound 605, (R)-2-((1-(2-(isoindolin-2-yl)-7-methyl-4-oxo-4H-pyrido[1,2-a]pyrimidin-9-yl)ethyl)amino)benzenesulfonamide] | < 0.1 µM | A (A denotes >20-fold) |  | 
Cc1cc(C(C)Nc2ccccc2C(=O)O)c2nc(C3CCC(C)(C)CC3)cc(=O)n2c1 (centres unmarked) [Compound 622] | 0.1 to 0.5 µM | A (A denotes >20-fold) |  | 
Cc1cc([C@@H](C)Nc2ccccc2C(=O)O)c2nc(C3CCC(C)(C)CC3)cc(=O)n2c1 [Compound 623, (R)-2-((1-(2-(4,4-dimethylcyclohexyl)-7-methyl-4-oxo-4H-pyrido[1,2-a]pyrimidin-9-yl)ethyl)amino)benzoic acid] | < 0.1 µM | A (A denotes >20-fold) |  | 
Cc1cc([C@H](C)Nc2ccccc2C(=O)O)c2nc(C3CCC(C)(C)CC3)cc(=O)n2c1 [Compound 624] | > 2 µM | C (C denotes ≤5-fold) |  | 
Cc1cc([C@@H](C)Nc2ccccc2C(=O)O)c2nc(-c3ccccc3)cc(=O)n2c1 [Compound 628] | > 2 µM | C (C denotes ≤5-fold) |  | 
Cc1cc([C@H](C)Nc2ccccc2C(=O)O)c2nc(-c3ccccc3)cc(=O)n2c1 [Compound 629] | < 0.1 µM | A (A denotes >20-fold) |  | 
Cc1cc(C(C)Nc2ccccc2)c2nc(N3Cc4ccccc4C3)cc(=O)n2c1 (centres unmarked) [Compound 647] |  |  | C (C denotes ≤5-fold) | 
Cc1cc([C@@H](C)N[C@H](C(=O)O)c2ccccc2)c2nc(N3CCOCC3)cc(=O)n2c1 [Compound 648] |  |  | C (C denotes ≤5-fold) | > 2 µM
Cc1cc([C@@H](C)N[C@@H](C(=O)O)c2ccccc2)c2nc(N3CCOCC3)cc(=O)n2c1 [Compound 649] |  |  | C (C denotes ≤5-fold) | > 2 µM
Cc1cc([C@H](C)N[C@H](C(=O)O)c2ccccc2)c2nc(N3CCOCC3)cc(=O)n2c1 [Compound 650] |  |  | C (C denotes ≤5-fold) | > 2 µM
Cc1cc([C@H](C)N[C@@H](C(=O)O)c2ccccc2)c2nc(N3CCOCC3)cc(=O)n2c1 [Compound 651] |  |  | C (C denotes ≤5-fold) | > 2 µM
Cc1cc([C@H](C)Nc2ccccc2C(=O)O)c2nc(N3Cc4ccccc4[C@H]3C)cc(=O)n2c1 [Compound 654] |  |  | B (B denotes 20-fold≥value>5-fold) | 0.5 to 2 µM
Cc1cc([C@@H](C)Nc2ccccc2C(=O)O)c2nc(N3Cc4ccccc4[C@H]3C)cc(=O)n2c1 [Compound 655] |  |  | C (C denotes ≤5-fold) | > 2 µM
Cc1cc(C(C)Nc2ccccc2C(=O)O)c2nc(-c3ccc(C(=O)N(C)C)cc3)cc(=O)n2c1 (centres unmarked) [Compound 657] |  |  | B (B denotes 20-fold≥value>5-fold) | 
Cc1cc([C@@H](C)Nc2ccccc2C(=O)O)c2nc(-c3ccc(C(=O)N(C)C)cc3)cc(=O)n2c1 [Compound 658] |  |  | A (A denotes >20-fold) | 0.1 to 0.5 µM
Cc1cc([C@H](C)Nc2ccccc2C(=O)O)c2nc(-c3ccc(C(=O)N(C)C)cc3)cc(=O)n2c1 [Compound 659] |  |  | C (C denotes ≤5-fold) | > 2 µM
CC(=O)c1ccc(-c2cc(=O)n3cc(C)cc([C@@H](C)Nc4ccccc4C(=O)O)c3n2)cc1 [Compound 660] |  |  | A (A denotes >20-fold) | < 0.1 µM
CC(=O)c1ccc(-c2cc(=O)n3cc(C)cc([C@H](C)Nc4ccccc4C(=O)O)c3n2)cc1 [Compound 661] |  |  | C (C denotes ≤5-fold) | > 2 µM
Cc1cc([C@@H](C)Nc2ccccc2C(=O)O)c2nc(-c3cc(C)c(F)c(C)c3)cc(=O)n2c1 [Compound 662] |  |  | A (A denotes >20-fold) | 0.1 to 0.5 µM

Further lines, results first:

IC50 [1] | T47D pAKT S473 HTRF IC50 (H1047R): T47D (H1047R) selectivity over SKBR3 (WT) [2] | T47D pAKT S473 HTRF IC50 (H1047R): T47D (H1047R) selectivity over SKBR3 (WT) [3] | IC50 (EGF stimulation) | SMILES
 |  | C (C denotes ≤5-fold) | > 2 µM | Cc1cc([C@H](C)Nc2ccccc2C(=O)O)c2nc(-c3cc(C)c(F)c(C)c3)cc(=O)n2c1 [Compound 663]
 |  | A (A denotes >20-fold) | 0.1 to 0.5 µM | Cc1cc(C(C)Nc2ccccc2-c2ccnnc2)c2nc(N3Cc4ccccc4C3)cc(=O)n2c1 (centres unmarked) [Compound 665, 2-(isoindolin-2-yl)-7-methyl-9-(1-((2-(pyridazin-4-yl)phenyl)amino)ethyl)-4H-pyrido[1,2-a]pyrimidin-4-one]
 |  | C (C denotes ≤5-fold) | > 2 µM | Cc1cc(C(C)Nc2cccc3c2OCC(=O)N3)c2nc(N3CCOCC3)cc(=O)n2c1 (centres unmarked) [Compound 684]
 |  | C (C denotes ≤5-fold) | > 2 µM | Cc1cc([C@@H](C)Nc2cccc3c2OCC(=O)N3)c2nc(N3CCOCC3)cc(=O)n2c1 [Compound 685]
 |  | C (C denotes ≤5-fold) | > 2 µM | Cc1cc([C@H](C)Nc2cccc3c2OCC(=O)N3)c2nc(N3CCOCC3)cc(=O)n2c1 [Compound 686]
 |  | C (C denotes ≤5-fold) | > 2 µM | Cc1cc([C@H](C)Nc2cccc3c2CCC(=O)N3)c2nc(N3CCOCC3)cc(=O)n2c1 [Compound 688]
 |  | A (A denotes >20-fold) | < 0.1 µM | Cc1cc(C(C)Nc2ccccc2C(=O)O)c2nc(-c3ccc(F)cc3)c(C)c(=O)n2c1 (centres unmarked) [Compound 691, 2-((1-(2-(4-fluorophenyl)-3,7-dimethyl-4-oxo-4H-pyrido[1,2-a]pyrimidin-9-yl)ethyl)amino)benzoic acid]
 |  | A (A denotes >20-fold) |  | Cc1cc(C(C)Nc2ccccc2C(=O)O)c2nc(-c3ccc4c(c3)c(C)nn4C)cc(=O)n2c1 (centres unmarked) [Compound 695]
 |  | C (C denotes ≤5-fold) |  | Cc1cc([C@H](C)Nc2ccccc2C(=O)O)c2nc(-c3ccc4c(c3)c(C)nn4C)cc(=O)n2c1 [Compound 697]
 |  | C (C denotes ≤5-fold) |  | Cc1cc(C(C)Nc2ccccc2-c2ccnnc2)c2nc(N3CC(C)OC(C)C3)cc(=O)n2c1 (centres unmarked) [Compound 698]
 |  | C (C denotes ≤5-fold) |  | Cc1cc([C@@H](C)Nc2ccccc2-c2ccnnc2)c2nc(N3CC(C)OC(C)C3)cc(=O)n2c1 (some centres unmarked) [Compound 699]
 |  | A (A denotes >20-fold) |  | Cc1cc([C@H](C)Nc2ccccc2-c2ccnnc2)c2nc(N3C[C@@H](C)O[C@@H](C)C3)cc(=O)n2c1 [Compound 700]
 |  | C (C denotes ≤5-fold) | > 2 µM | Cc1cc(C(C)Nc2ccccc2C(=O)O)c2nc(-c3ccc4c(c(N)nn4C)c3C)cc(=O)n2c1 (centres unmarked) [Compound 701]
